How the values were obtained:
Human melanocortin (MC5) = molecular target: T1, Human melanocortin (MC5) (Homo sapiens, UniProt P33032); assay: Radioligand binding, human melanocortin MC5 membranes, FlashPlate, [125I]-NDP-αMSH; settings: compound at 10 μM, [125I]-NDP-αMSH
T1 construct: purchased Perkin Elmer Biosignal
Procedure, shortened: (§1)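 Cloned human receptor membranes were coated onto FlashPlate wells and incubated with radioligand and compound (added from a 0.5 mM DMSO daughter plate) for 1 hour at room temperature in the dark. Scintillation counting gave percent inhibition, with DMSO defining total and reference ligand defining non-specific binding.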

Human neurokinin (NK1) = molecular target: T2, Human neurokinin (NK1) (Homo sapiens, UniProt P25103); assay: Radioligand binding, human neurokinin NK1 membranes, filtration, [125I]-Substance P; settings: compound at 10 μM, [125I]-Substance P
T2 construct: purchased Perkin Elmer Biosignal
T2 sequence (P25103 whole entry): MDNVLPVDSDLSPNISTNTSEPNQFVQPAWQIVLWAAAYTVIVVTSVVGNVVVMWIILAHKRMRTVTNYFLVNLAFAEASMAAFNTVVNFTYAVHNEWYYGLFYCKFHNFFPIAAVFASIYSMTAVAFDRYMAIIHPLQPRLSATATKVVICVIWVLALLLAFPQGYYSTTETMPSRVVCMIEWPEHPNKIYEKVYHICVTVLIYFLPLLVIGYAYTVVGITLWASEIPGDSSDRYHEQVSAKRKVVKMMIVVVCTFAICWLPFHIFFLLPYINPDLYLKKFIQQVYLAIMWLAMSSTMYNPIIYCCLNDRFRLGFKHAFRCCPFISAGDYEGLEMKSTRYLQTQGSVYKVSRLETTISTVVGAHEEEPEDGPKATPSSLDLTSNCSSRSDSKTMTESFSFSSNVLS
Procedure, shortened: (§2)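 Percent inhibition of radioligand binding measured on recombinant human membranes: NK1 with [125I]-Substance P, KOP with [3H]-Diprenorphine. Incubation 1 h at room temperature, then harvest onto 0.3% PEI-soaked filters, cold Tris-HCl pH 7.4 washes and scintillation counting; non-specific binding from reference ligand wells.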

Human Melanocortin (MC4) = molecular target: T3, Human Melanocortin (MC4) (Homo sapiens, UniProt P32245); assay: Radioligand binding, human melanocortin MC4 membranes, FlashPlate, [125I]-NDP-αMSH; settings: compound at 10 μM, [125I]-NDP-αMSH
T3 construct: purchased Perkin Elmer Biosignal
T3 sequence (P32245 whole entry): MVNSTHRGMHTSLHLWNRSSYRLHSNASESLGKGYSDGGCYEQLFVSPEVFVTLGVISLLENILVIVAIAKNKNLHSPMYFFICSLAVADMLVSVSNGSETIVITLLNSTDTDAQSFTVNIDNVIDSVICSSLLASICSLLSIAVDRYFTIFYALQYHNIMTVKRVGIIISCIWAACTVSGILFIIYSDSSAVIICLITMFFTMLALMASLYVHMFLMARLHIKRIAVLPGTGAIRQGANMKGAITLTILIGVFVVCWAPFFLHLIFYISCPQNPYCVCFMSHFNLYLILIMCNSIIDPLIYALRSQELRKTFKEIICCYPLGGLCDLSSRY
Procedure, shortened: as §1

Human μ-opioid (MOP) = molecular target: T4, Human μ-opioid (MOP) (Homo sapiens, UniProt P35372); assay: Radioligand binding, human μ-opioid (MOP) membranes, FlashPlate, [3H]-Naloxone; settings: compound at 10 μM, [3H]-Naloxone
T4 construct: purchased Perkin Elmer Biosignal
T4 sequence (P35372 whole entry): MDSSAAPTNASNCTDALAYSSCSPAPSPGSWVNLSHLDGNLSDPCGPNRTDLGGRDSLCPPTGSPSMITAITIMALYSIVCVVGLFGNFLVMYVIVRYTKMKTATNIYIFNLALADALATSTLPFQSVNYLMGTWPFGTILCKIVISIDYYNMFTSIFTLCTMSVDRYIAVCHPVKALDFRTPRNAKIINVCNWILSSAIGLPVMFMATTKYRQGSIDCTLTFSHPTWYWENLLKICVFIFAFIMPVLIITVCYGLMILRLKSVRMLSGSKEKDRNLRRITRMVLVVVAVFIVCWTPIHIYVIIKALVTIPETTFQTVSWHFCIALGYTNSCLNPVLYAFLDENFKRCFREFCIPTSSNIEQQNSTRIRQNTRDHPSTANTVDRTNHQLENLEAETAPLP
Procedure, shortened: as §1

Human κ-Opioid (KOP) = molecular target: T5, Human κ-Opioid (KOP) (Homo sapiens, UniProt P41145); assay: Radioligand binding, human κ-opioid (KOP) membranes, filtration, [3H]-Diprenorphine; settings: compound at 10 μM, [3H]-Diprenorphine
T5 construct: purchased Perkin Elmer Biosignal
T5 sequence (P41145 whole entry): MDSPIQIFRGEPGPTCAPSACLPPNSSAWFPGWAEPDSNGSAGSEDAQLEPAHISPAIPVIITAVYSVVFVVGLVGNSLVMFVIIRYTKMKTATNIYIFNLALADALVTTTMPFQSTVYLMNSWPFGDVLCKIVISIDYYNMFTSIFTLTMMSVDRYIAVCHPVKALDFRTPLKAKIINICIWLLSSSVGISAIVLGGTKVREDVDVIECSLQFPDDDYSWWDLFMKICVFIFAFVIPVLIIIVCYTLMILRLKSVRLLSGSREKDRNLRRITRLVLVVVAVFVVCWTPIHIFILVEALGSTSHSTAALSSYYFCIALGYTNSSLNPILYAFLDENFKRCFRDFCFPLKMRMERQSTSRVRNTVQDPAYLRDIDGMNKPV
Procedure, shortened: as §2

[1] = molecular target: T6, Human neuropeptide Y (NPY-Y1) (Homo sapiens, UniProt P25929); assay: Radioligand binding, human neuropeptide Y NPY-Y1 membranes, FlashPlate, [125I]-PYY; settings: compound at 10 μM, [125I]-PYY
T6 construct: purchased Perkin Elmer Biosignal
T6 sequence (P25929 1-384): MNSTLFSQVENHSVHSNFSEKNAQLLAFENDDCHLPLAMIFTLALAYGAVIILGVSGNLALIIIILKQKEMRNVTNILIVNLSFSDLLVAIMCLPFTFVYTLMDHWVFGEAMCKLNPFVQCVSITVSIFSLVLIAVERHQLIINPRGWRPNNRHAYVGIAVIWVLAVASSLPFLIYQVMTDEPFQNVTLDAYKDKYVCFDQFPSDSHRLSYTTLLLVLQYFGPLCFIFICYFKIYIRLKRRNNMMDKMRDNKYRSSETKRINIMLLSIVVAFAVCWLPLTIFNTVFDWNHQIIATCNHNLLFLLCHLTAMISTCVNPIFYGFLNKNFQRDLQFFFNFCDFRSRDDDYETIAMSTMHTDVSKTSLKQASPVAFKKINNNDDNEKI
Procedure, shortened: as §1

Mouse urotensin (mUR2) = molecular target: T7, Mouse urotensin (mUR2) (Mus musculus, UniProt Q8VIH9); assay: Radioligand binding, mouse urotensin mUR2 membranes, FlashPlate, [125I]-Urotensin II; settings: compound at 10 μM, [125I]-Urotensin II
T7 construct: purchased Perkin Elmer Biosignal
T7 sequence (Q8VIH9 1-385): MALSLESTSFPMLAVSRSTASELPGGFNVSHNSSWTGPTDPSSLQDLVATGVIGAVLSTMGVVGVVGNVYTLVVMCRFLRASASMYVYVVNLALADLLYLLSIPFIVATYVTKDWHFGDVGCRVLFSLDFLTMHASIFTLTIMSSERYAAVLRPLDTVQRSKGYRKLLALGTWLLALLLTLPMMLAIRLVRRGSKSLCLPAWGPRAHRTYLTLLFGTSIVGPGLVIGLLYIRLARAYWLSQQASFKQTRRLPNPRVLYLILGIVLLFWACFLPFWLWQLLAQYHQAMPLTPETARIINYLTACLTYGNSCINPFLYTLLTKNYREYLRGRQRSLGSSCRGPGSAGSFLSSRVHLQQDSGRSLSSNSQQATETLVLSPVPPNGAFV
Procedure, shortened: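 Cloned mouse urotensin (mUR2) receptor membranes from Perkin Elmer Biosignal were immobilized in FlashPlate microplates using a proprietary coating. Each well got 19.5 μl buffer, then 0.5 μl of DMSO, reference ligand, or compound. Adding 5 μl of [125I]-Urotensin II, diluted to 5× final concentration in binding buffer, started binding. Plates were sealed with TopSeal-A and incubated 1 hour at room temperature in the dark. Wells were counted for 30 seconds each on a TopCount after a 60-second delay, and percentage inhibition was calculated.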

Human Melanocortin (MC3) = molecular target: T8, Human Melanocortin (MC3) (Homo sapiens, UniProt P41968); assay: Radioligand binding, human melanocortin MC3 membranes, FlashPlate, [125I]-NDP-αMSH; settings: compound at 10 μM, [125I]-NDP-αMSH
T8 construct: purchased Perkin Elmer Biosignal
T8 sequence (P41968 whole entry): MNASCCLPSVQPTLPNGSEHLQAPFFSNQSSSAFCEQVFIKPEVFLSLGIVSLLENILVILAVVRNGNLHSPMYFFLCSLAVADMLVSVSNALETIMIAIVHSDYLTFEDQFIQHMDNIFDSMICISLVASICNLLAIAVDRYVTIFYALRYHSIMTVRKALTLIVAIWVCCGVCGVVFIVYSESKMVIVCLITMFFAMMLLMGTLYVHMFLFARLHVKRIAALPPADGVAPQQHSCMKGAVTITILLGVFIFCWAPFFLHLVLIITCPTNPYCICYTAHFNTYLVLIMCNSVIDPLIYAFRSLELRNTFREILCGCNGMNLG
Procedure, shortened: as §1

Human δ-opioid (DOP) = molecular target: T9, Human δ-opioid (DOP) (Homo sapiens, UniProt P41143); assay: Radioligand binding, human δ-opioid (DOP) membranes, FlashPlate, [3H]-Bremazocine; settings: compound at 10 μM, [3H]-Bremazocine
T9 construct: purchased Perkin Elmer Biosignal
T9 sequence (P41143 whole entry): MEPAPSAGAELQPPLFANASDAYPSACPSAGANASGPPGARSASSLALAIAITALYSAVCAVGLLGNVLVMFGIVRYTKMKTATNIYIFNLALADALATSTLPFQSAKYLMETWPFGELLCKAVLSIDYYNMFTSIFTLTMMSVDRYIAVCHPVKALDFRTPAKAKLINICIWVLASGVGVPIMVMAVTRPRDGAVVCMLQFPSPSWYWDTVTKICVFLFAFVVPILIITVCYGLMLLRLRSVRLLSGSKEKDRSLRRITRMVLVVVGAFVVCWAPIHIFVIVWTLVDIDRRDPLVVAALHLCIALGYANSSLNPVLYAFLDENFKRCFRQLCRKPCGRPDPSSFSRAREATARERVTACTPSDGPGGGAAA
Procedure, shortened: as §1

Human opioid (ORL1) = molecular target: T10, Human opioid (ORL1) (Homo sapiens, UniProt P41146); assay: Radioligand binding, human opioid ORL1 membranes, FlashPlate, [125I]-Nociceptin; settings: compound at 10 μM, [125I]-Nociceptin
T10 construct: purchased Perkin Elmer Biosignal
T10 sequence (P41146 whole entry): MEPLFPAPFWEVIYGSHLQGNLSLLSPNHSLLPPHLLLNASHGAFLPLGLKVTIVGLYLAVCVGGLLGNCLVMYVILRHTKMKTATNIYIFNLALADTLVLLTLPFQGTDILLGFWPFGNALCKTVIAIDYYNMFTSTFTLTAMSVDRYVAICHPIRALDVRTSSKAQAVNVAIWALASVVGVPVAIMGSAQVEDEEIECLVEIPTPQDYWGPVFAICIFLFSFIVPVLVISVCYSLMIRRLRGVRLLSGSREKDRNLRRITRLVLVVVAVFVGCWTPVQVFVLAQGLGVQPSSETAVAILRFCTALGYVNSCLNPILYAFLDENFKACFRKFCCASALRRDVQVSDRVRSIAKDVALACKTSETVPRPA
Procedure, shortened: as §1

[2] = molecular target: T11, Human melanin-concentrating hormone (MCH1) (Homo sapiens, UniProt Q99705); assay: Radioligand binding, human melanin-concentrating hormone MCH1 membranes, FlashPlate, [125I]-S36057; settings: compound at 10 μM
T11 construct: purchased Perkin Elmer Biosignal
T11 sequence (Q99705 whole entry): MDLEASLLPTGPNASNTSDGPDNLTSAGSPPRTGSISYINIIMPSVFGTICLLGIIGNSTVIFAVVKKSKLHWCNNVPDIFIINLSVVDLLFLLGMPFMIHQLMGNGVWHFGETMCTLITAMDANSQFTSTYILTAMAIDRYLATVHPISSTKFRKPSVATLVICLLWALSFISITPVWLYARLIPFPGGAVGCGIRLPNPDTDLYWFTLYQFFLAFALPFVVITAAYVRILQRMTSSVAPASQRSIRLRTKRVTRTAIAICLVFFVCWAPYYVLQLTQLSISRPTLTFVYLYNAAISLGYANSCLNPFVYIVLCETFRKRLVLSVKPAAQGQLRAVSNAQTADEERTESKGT
Procedure, shortened: as §1

T1 sequence (P33032 whole entry): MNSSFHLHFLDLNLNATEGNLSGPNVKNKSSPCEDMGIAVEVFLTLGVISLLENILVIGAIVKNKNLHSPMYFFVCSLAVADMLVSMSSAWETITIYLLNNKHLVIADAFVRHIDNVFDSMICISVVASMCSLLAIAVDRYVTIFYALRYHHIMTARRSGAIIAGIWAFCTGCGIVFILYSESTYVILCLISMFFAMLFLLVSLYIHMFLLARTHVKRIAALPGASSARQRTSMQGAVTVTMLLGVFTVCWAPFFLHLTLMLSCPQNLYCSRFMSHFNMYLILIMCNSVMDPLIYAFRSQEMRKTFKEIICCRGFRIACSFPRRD

Structure (SMILES): CSC1OC(COCc2ccc3ccccc3c2)C(O)C(OCc2ccc3ccccc3c2)C1NC(=O)CCCNC(=N)N (stereo not shown) [compound 321]
- A5: inhibition of radioligand binding, human melanocortin (MC5) (Human melanocortin (MC5)): + (“+” indicates greater than 50% inhibition at 10 μM)
- A8: inhibition of radioligand binding, human neurokinin (NK1) (Human neurokinin (NK1)): + (“+” indicates greater than 50% inhibition at 10 μM)
- A4: inhibition of radioligand binding, human melanocortin (MC4) (Human Melanocortin (MC4)): + (“+” indicates greater than 50% inhibition at 10 μM)
- A7: inhibition of radioligand binding, human μ-opioid (MOP) (Human μ-opioid (MOP)): − (“−” indicates less than 50% inhibition at 10 μM)
- A2: inhibition of radioligand binding, human κ-opioid (KOP) (Human κ-Opioid (KOP)): − (“−” indicates less than 50% inhibition at 10 μM)
- A9: inhibition of radioligand binding, human neuropeptide Y (NPY-Y1) [1]: − (“−” indicates less than 50% inhibition at 10 μM)
- A11: inhibition of radioligand binding, mouse urotensin (mUR2) (Mouse urotensin (mUR2)): − (“−” indicates less than 50% inhibition at 10 μM)
- A3: inhibition of radioligand binding, human melanocortin (MC3) (Human Melanocortin (MC3)): + (“+” indicates greater than 50% inhibition at 10 μM)
- A1: inhibition of radioligand binding, human δ-opioid (DOP) (Human δ-opioid (DOP)): − (“−” indicates less than 50% inhibition at 10 μM)
- A10: inhibition of radioligand binding, human opioid (ORL1) (Human opioid (ORL1)): − (“−” indicates less than 50% inhibition at 10 μM)
- A6: inhibition of radioligand binding, human melanin-concentrating hormone (MCH1) ([2]; [125I]-S36057): + (“+” indicates greater than 50% inhibition at 10 μM)

Structure (SMILES): COCC1OC(OCc2ccc(Cl)cc2)C(NC(=O)CCNC(=N)N)C(OCc2ccc(-c3ccccc3)cc2)C1O (stereo not shown) [compound 206]
- A5: inhibition of radioligand binding (Human melanocortin (MC5); FlashPlate): + (“+” indicates greater than 50% inhibition at 10 μM)
- A8: inhibition of radioligand binding (Human neurokinin (NK1); filtration): + (“+” indicates greater than 50% inhibition at 10 μM)
- A4: inhibition of radioligand binding (Human Melanocortin (MC4); FlashPlate): + (“+” indicates greater than 50% inhibition at 10 μM)
- A7: inhibition of radioligand binding (Human μ-opioid (MOP); FlashPlate): − (“−” indicates less than 50% inhibition at 10 μM)
- A2: inhibition of radioligand binding (Human κ-Opioid (KOP); filtration): − (“−” indicates less than 50% inhibition at 10 μM)
- A9: inhibition of radioligand binding ([1]; FlashPlate): − (“−” indicates less than 50% inhibition at 10 μM)
- A11: inhibition of radioligand binding (Mouse urotensin (mUR2); FlashPlate): − (“−” indicates less than 50% inhibition at 10 μM)
- A3: inhibition of radioligand binding (Human Melanocortin (MC3); FlashPlate): − (“−” indicates less than 50% inhibition at 10 μM)
- A1: inhibition of radioligand binding (Human δ-opioid (DOP); FlashPlate): − (“−” indicates less than 50% inhibition at 10 μM)
- A10: inhibition of radioligand binding (Human opioid (ORL1); FlashPlate): − (“−” indicates less than 50% inhibition at 10 μM)
- A6: inhibition of radioligand binding ([2]; [125I]-S36057, FlashPlate): + (“+” indicates greater than 50% inhibition at 10 μM)

Structure (SMILES): CO[C@H]1[C@H](O)[C@@H](COCc2ccc3ccccc3c2)OC(OCc2ccc(Cl)cc2)[C@@H]1NC(=O)CCCNC(=N)N (stereo partly shown) [compound 100]
- A5 radioligand binding, percentage inhibition (Human melanocortin (MC5)): + (“+” indicates greater than 50% inhibition at 10 μM)
- A8 radioligand binding, percentage inhibition (Human neurokinin (NK1)): + (“+” indicates greater than 50% inhibition at 10 μM)
- A4 radioligand binding, percentage inhibition (Human Melanocortin (MC4)): + (“+” indicates greater than 50% inhibition at 10 μM)
- A7 radioligand binding, percentage inhibition (Human μ-opioid (MOP)): + (“+” indicates greater than 50% inhibition at 10 μM)
- A2 radioligand binding, percentage inhibition (Human κ-Opioid (KOP)): − (“−” indicates less than 50% inhibition at 10 μM)
- A9 radioligand binding, percentage inhibition [1]: − (“−” indicates less than 50% inhibition at 10 μM)
- A11 radioligand binding, percentage inhibition (Mouse urotensin (mUR2)): − (“−” indicates less than 50% inhibition at 10 μM)
- A3 radioligand binding, percentage inhibition (Human Melanocortin (MC3)): + (“+” indicates greater than 50% inhibition at 10 μM)
- A1 radioligand binding, percentage inhibition (Human δ-opioid (DOP)): − (“−” indicates less than 50% inhibition at 10 μM)
- A10 radioligand binding, percentage inhibition (Human opioid (ORL1)): + (“+” indicates greater than 50% inhibition at 10 μM)
- A6 radioligand binding, percentage inhibition ([2]; [125I]-S36057): + (“+” indicates greater than 50% inhibition at 10 μM)

Structure (SMILES): N=C(N)NCCC(=O)NC1C(OCc2ccc(Cl)cc2)OC(COCc2ccc3ccccc3c2)C(O)C1OCc1ccc2ccccc2c1 (stereo not shown) [compound 429]
- A5: inhibition of radioligand binding (Human melanocortin (MC5); human MC5 membranes): + (“+” indicates greater than 50% inhibition at 10 μM)
- A8: inhibition of radioligand binding (Human neurokinin (NK1); human NK1 membranes): + (“+” indicates greater than 50% inhibition at 10 μM)
- A4: inhibition of radioligand binding (Human Melanocortin (MC4); human MC4 membranes): + (“+” indicates greater than 50% inhibition at 10 μM)
- A7: inhibition of radioligand binding (Human μ-opioid (MOP); human MOP membranes): − (“−” indicates less than 50% inhibition at 10 μM)
- A2: inhibition of radioligand binding (Human κ-Opioid (KOP); human KOP membranes): − (“−” indicates less than 50% inhibition at 10 μM)
- A9: inhibition of radioligand binding ([1]; human NPY-Y1 membranes): − (“−” indicates less than 50% inhibition at 10 μM)
- A11: inhibition of radioligand binding (Mouse urotensin (mUR2); mouse mUR2 membranes): − (“−” indicates less than 50% inhibition at 10 μM)
- A3: inhibition of radioligand binding (Human Melanocortin (MC3); human MC3 membranes): + (“+” indicates greater than 50% inhibition at 10 μM)
- A1: inhibition of radioligand binding (Human δ-opioid (DOP); human DOP membranes): − (“−” indicates less than 50% inhibition at 10 μM)
- A10: inhibition of radioligand binding (Human opioid (ORL1); human ORL1 membranes): − (“−” indicates less than 50% inhibition at 10 μM)
- A6: inhibition of radioligand binding ([2]; [125I]-S36057, human MCH1 membranes): + (“+” indicates greater than 50% inhibition at 10 μM)

Structure (SMILES): COCC1OC(OCc2ccc3ccccc3c2)C(NC(=O)CNC(=N)N)C(OCc2ccc(Cl)cc2)C1O (stereo not shown) [compound 236]
- A5: inhibition of radioligand binding (Human melanocortin (MC5); FlashPlate): + (“+” indicates greater than 50% inhibition at 10 μM)
- A8: inhibition of radioligand binding (Human neurokinin (NK1); filtration): + (“+” indicates greater than 50% inhibition at 10 μM)
- A4: inhibition of radioligand binding (Human Melanocortin (MC4); FlashPlate): + (“+” indicates greater than 50% inhibition at 10 μM)
- A7: inhibition of radioligand binding (Human μ-opioid (MOP); FlashPlate): − (“−” indicates less than 50% inhibition at 10 μM)
- A2: inhibition of radioligand binding (Human κ-Opioid (KOP); filtration): − (“−” indicates less than 50% inhibition at 10 μM)
- A9: inhibition of radioligand binding ([1]; FlashPlate): − (“−” indicates less than 50% inhibition at 10 μM)
- A11: inhibition of radioligand binding (Mouse urotensin (mUR2); FlashPlate): − (“−” indicates less than 50% inhibition at 10 μM)
- A3: inhibition of radioligand binding (Human Melanocortin (MC3); FlashPlate): + (“+” indicates greater than 50% inhibition at 10 μM)
- A1: inhibition of radioligand binding (Human δ-opioid (DOP); FlashPlate): − (“−” indicates less than 50% inhibition at 10 μM)
- A10: inhibition of radioligand binding (Human opioid (ORL1); FlashPlate): − (“−” indicates less than 50% inhibition at 10 μM)
- A6: inhibition of radioligand binding ([2]; [125I]-S36057, FlashPlate): + (“+” indicates greater than 50% inhibition at 10 μM)

From patent publication US20080009418A1, “Selective Inhibitors” (Alchemia LTD., priority 2004, published 2008)
